Laboratory results published in US7385086B2 (priority 1997, dated 2008).
Values after ≈ are worked out from the molar mass of the structure shown. Like-named read-outs stand apart in the source and are kept apart here.

Columns and labels:
[1] = test system: M. tuberculosis (strain H37Rv); test: MIC against M. tuberculosis strain H37Rv; format: cell-based; conditions: Mycobacterium tuberculosis
M. avium-intracellulare = test: MIC / growth inhibition against M. avium-intracellulare; format: cell-based, Mycobacterium avium-intracellulare
M. bovis BCG = test: microbe, parasite or virus in culture; format: cell-based; conditions: Mycobacterium tuberculosis variant bovis BCG
[2] = test system: mycolic acid synthesis in M. bovis BCG; format: cell-based, Mycobacterium bovis; conditions: M. bovis BCG in the presence of III-50
M. bovis BCG cell wall = format: cell-based, Mycobacterium bovis; conditions: dividing M. bovis BCG in the presence of III-50
[3] = test system: mycolic acid synthesis in M. avium-intracellulare; test: Metabolic labeling, two-dimensional TLC of mycolic acids, M. avium-intracellulare; format: cell-based, Mycobacterium avium-intracellulare; conditions: M. avium-intracellulare cultures treated with 12.5 μg/ml
[4] = M. tuberculosis strain H37Rv, in vitro, read-out: MIC MTB
[5] = Mycobacterium avium-intracellulare, M. avium-intracellulare, in vitro, read-out: MIC MAI
[6] = M. avium-intracellulare, routinely isoniazid resistant

SMILES | MIC [1, 4] | further results
CCCCCCCC[S+]([O-])CC(=O)OCc1ccccc1 (stereo not shown) [HIII-206a] | 6.25 µg/mL (≈ 20.1 µM) | –
CCCCCCCCCCS(=O)(=O)C=CC(N)=O [JRG-I-89-3] | 6.25 µg/mL (≈ 22.7 µM) | –
CCCCCCCCCCS(=O)(=O)/C=C/C(=O)OC [JRG-I-31] | – | melting point: 62 to 63 °C
CCCCCCCCCCS(=O)(=O)/C=C/C(=O)O [JRG-I-43] | 50 µg/mL (≈ 181 µM) | –
CCCCCCCCCCS(=O)(=O)CC(N)=O [SI-73] | 3.12 µg/mL (≈ 11.8 µM) | MIC ([1]; H37RV): 3.12 µg/mL (≈ 11.8 µM); MIC (M. avium-intracellulare; [5]): 12.5 µg/mL (≈ 47.5 µM); MIC (M. avium-intracellulare; dose-response curves, M. avium-intracellular): 12.50 µg/mL (≈ 47.5 µM)
CCCCCCCCCCS(=O)(=O)/C=C\C(N)=O [JRG-I-89-1] | 25 µg/mL (≈ 90.8 µM) | –
CCCCCCCCCCS(=O)(=O)CCC(N)=O [DI-59] | > 25 µg/mL | –
CCCCCCCCS(=O)(=O)NCC(=O)O [HIII-56] | > 25 µg/mL | MIC (M. bovis BCG; read-out: MIC BCG): > 25 µg/mL
CCCCCCCC[S+]([O-])CC(=O)OC (stereo not shown) [HIII-302] | > 25 µg/mL | –
NNC(=O)c1ccncc1 [isoniazid, reference compound] | – | isoniazid resistance level (M. avium-intracellulare; [6]): > 2.5 µg/mL
CC(C)CCCC(C)CCS(=O)(=O)CC(N)=O (stereo not shown) [SI-52] | 6.25 µg/mL (≈ 23.7 µM) | –
CCCCCCCCCCS(=O)(=O)C=CC(=O)OC (mixture of isomers) [JRG-I-31(mixture of cisand trans)] | 50 µg/mL | –
CCCCCCCCCCS(=O)(=O)/C=C/C(N)=O [JRG-I-89-2] | 12.5 µg/mL (≈ 45.4 µM) | –
CCCCCCCCS(=O)(=O)CC(=O)OCc1ccccc1 [HIII-206b] | 12.5 µg/mL (≈ 38.3 µM) | –
CCCCCCCCCC[S+]([O-])CC(N)=O (stereo not shown) [SI-46] | 6.25 µg/mL (≈ 25.3 µM) | –
CCCCCCCCS(=O)(=O)CC(N)=O [HIII-50, n-Octanesulphonylacetamide] | 6.25 µg/mL (≈ 26.6 µM) | MIC ([1]; H37RV): 6.5 µg/mL (≈ 27.6 µM); mycolic acids by phosphorimage of 2D TLC [2]: significantly reduced; cell wall morphology in electron micrographs (M. bovis BCG cell wall): disruption of the cell wall; MIC (M. bovis BCG): 6.25 µg/mL (≈ 26.6 µM); MIC (M. bovis BCG; read-out: MIC BCG): 6.25 µg/mL (≈ 26.6 µM); growth inhibition (M. avium-intracellulare; [6]): inhibits; MIC (M. avium-intracellulare; [5]): 25 µg/mL (≈ 106 µM); mycolic acids by phosphorimage of 2D TLC [3]: undetectable
CCCCCCCCCCS(=O)(=O)CC(=O)NCCO [SI-45] | 12.5 µg/mL (≈ 40.7 µM) | MIC (M. bovis BCG; read-out: MIC BCG): 25 µg/mL (≈ 81.3 µM)
CCCCCCCCCCS(=O)(=O)CC(=O)NCC(O)CO (stereo not shown) [SI-48] | > 25 µg/mL | –
